The record followed here is ChEMBL document CHEMBL4393704, “Synthesis and biological evaluation of dihydroquinazoline-2-amines as potent non-nucleoside reverse transcriptase inhibitors of wild-type and mutant HIV-1 strains” (Eur J Med Chem, 2019).

Data set [1] in a line: Cytotoxicity against human MT4 cells measured after 5 days by MTT assay. In kind it is cell-based. For orientation: Tetrazolium dyes change colour on reduction, which living cells bring about.
Data set [2] deals with Human immunodeficiency virus 1. In words: Antiviral activity against HIV-1 3B harboring reverse transcriptase E138K mutant infected in MT4 cells measured after 5 days by MTT assay. In kind it is functional, organism-based. To be noted: Human immunodeficiency virus 1, 3B, MT4, 120 h.
The test system of data set [3] is Human immunodeficiency virus 1. In words: Antiviral activity against HIV-1 3B harboring reverse transcriptase RES056 mutant infected in MT4 cells measured after 5 days by MTT assay. To be noted: Human immunodeficiency virus 1, 3B, MT4, 120 h. Type of data set: functional, organism-based.
The nature of data set [4]: Selectivity index, ratio of CC50 for human MT4 cells to EC50 for HIV-1 3B infected in MT4 cells. Type of data set: toxicity, cell-based. To be noted: HIV-1 3B infected MT4 cells, read-out: Ratio CC50/EC50.
In data set [5] the test system is Human immunodeficiency virus 1. Briefly: Antiviral activity against wild type HIV-1 3B infected in MT4 cells measured after 5 days by MTT assay. In kind it is functional, organism-based. To be noted: Human immunodeficiency virus 1, 3B, MT4, 120 h.
Data set [6] addresses Human immunodeficiency virus type 1 reverse transcriptase (Human immunodeficiency virus 1, UniProt Q72547). Briefly: Inhibition of recombinant wild-type HIV1 3B reverse transcriptase assessed as reduction in biotin-dUTP incorporation using poly(rA)/oligo(dT)16 as template primer incubated for 1 hr followed by the addition of (DIG)-dUTP and biotin-labeled dNTPs by ELISA.
The subject of data set [7] is Human immunodeficiency virus 1. Briefly: Potency index, ratio of ETV EC50 to compound EC50 for antiviral activity against HIV-1 3B harboring reverse transcriptase E138K mutant infected in MT4 cells measured after 5 days by MTT assay. Type of data set: functional.
For data set [8], the system named is Human immunodeficiency virus 1. In words: Potency index, ratio of EFV EC50 to compound EC50 for antiviral activity against wild type HIV-1 3B infected in MT4 cells measured after 5 days by MTT assay. In kind it is functional.
Data set [9] relates to Human immunodeficiency virus 1. In words: Potency index, ratio of ETV EC50 to compound EC50 for antiviral activity against wild type HIV-1 3B infected in MT4 cells measured after 5 days by MTT assay. Type of data set: functional.

Structures are written as SMILES. Some results are limits rather than exact numbers.

Turning to `COc1ccc(NC2=Nc3ccc(Cl)cc3C(C#CC3CC3)(C(F)(F)F)N2)cc1` (stereo not given), the midpoint of cytotoxicity in [1], the CC50 at 120 h, lay at 8400 nM. Besides, the results for the concentration giving a half-maximal response (EC50) in [2], in data set [3] and in data set [5] were 410 nM, above 8400 nM and 260 nM, respectively. In data set [4], the selectivity ratio amounted to 32.
Take `FC(F)(F)C1(C#CC2CC2)NC(Nc2ccccc2Br)=Nc2ccc(Cl)cc21` (stereo not given): it took 11000 nM to reach half-maximal cytotoxicity in data set [1] (CC50 at 120 h). The figures for the concentration for a half-maximal effect (EC50) in data set [2], in data set [3] and in data set [5] were 160 nM, 1800 nM and 88 nM, respectively. The selectivity ratio in data set [4] came to 133. In addition, in [6], the IC50 amounted to 3.4 nM.
As to `Cc1ccc(NC2=Nc3ccc(Cl)cc3C(C#CC3CC3)(C(F)(F)F)N2)cc1` (stereo not given), in data set [1], the 50% cytotoxic concentration (CC50) at 120 h is 5000 nM. The half-maximal effective concentration (EC50) was 400 nM in data set [2], above 4900 nM in [3] and 250 nM in data set [5]. Also, the selectivity ratio in data set [4] is 20.
The corresponding values for `Fc1ccc(NC2=Nc3ccc(Cl)cc3C(C#CC3CC3)(C(F)(F)F)N2)cc1F` (stereo not given) are 1800 nM, above 1800 nM, above 1800 nM, 360 nM and 5.
On the same counts, the results for `FC(F)(F)C1(C#CC2CC2)NC(Nc2ccccc2)=Nc2ccc(Cl)cc21` (stereo not given) are 2400 nM, 380 nM, above 2400 nM, 110 nM and 21.
`N#Cc1cccc(NC2=Nc3ccc(Cl)cc3C(C#CC3CC3)(C(F)(F)F)N2)c1` (stereo not given) displayed a half-maximal cytotoxic concentration (CC50) at 120 h in data set [1] of 2200 nM. The EC50 is 650 nM in data set [2], above 2200 nM in [3] and 440 nM in data set [5]. Moreover, the selectivity ratio in data set [4] came out at 5.
On the same counts, the results for `Cc1cccc(NC2=Nc3ccc(Cl)cc3C(C#CC3CC3)(C(F)(F)F)N2)c1` (stereo not given) are 2100 nM, 360 nM, above 2100 nM, 210 nM and 10.
On the same counts, the results for `Fc1ccccc1NC1=Nc2ccc(Cl)cc2C(C#CC2CC2)(C(F)(F)F)N1` (stereo not given) are 3100 nM, 140 nM, above 3100 nM, 100 nM and 31.
In turn, `N#Cc1ccc(NC2=Nc3ccc(Cl)cc3C(C#CC3CC3)(C(F)(F)F)N2)cc1` (stereo not given) yielded a CC50 at 120 h in data set [1] of 1900 nM. The concentration for a half-maximal effect (EC50) in data set [2] was 3.5 nM; in [3], 66 nM; in data set [5], 0.84 nM. Also, in data set [4], the selectivity ratio was found to be 2300. Also, in [6], the 50% inhibitory concentration (IC50) turned out to be 10 nM. In addition, the “Ratio EC50” value in data set [7] is 2; in data set [8], 2; in data set [9] it was 9.
`Cc1ccc(NC2=Nc3ccc(Cl)cc3C(C#CC3CC3)(C(F)(F)F)N2)cc1C` (stereo not given) displayed a cytotoxic concentration (CC50) at 120 h in data set [1] of 5900 nM. Moreover, the 50% effective concentration (EC50) in [2] is 560 nM; in data set [3], above 5800 nM; in data set [5], 610 nM. In [4], the selectivity ratio stood at 8.
On the same counts, the results for `Cc1ccccc1NC1=Nc2ccc(Cl)cc2C(C#CC2CC2)(C(F)(F)F)N1` (stereo not given) are 4100 nM, 400 nM, above 4100 nM, 140 nM and 30.
Compound `FC(F)(F)C1(C#CC2CC2)NC(Nc2cccc(Cl)c2)=Nc2ccc(Cl)cc21` (stereo not given) had a CC50 at 120 h in data set [1] of 2000 nM. Further, the results for the EC50 in data set [2], in data set [3] and in data set [5] were 480 nM, above 2000 nM and 210 nM, respectively. Moreover, in [4], the selectivity ratio amounted to 9.
On the same counts, the results for `Cc1cc(C)cc(NC2=Nc3ccc(Cl)cc3C(C#CC3CC3)(C(F)(F)F)N2)c1` (stereo not given) are 2100 nM, 600 nM, above 2100 nM, 360 nM and 6.
Compound `Fc1cccc(NC2=Nc3ccc(Cl)cc3C(C#CC3CC3)(C(F)(F)F)N2)c1` (stereo not given) came in with a CC50 at 120 h in [1] of 2000 nM. The concentration for a half-maximal effect (EC50) in data set [2] was 340 nM; in data set [3], above 2000 nM; in data set [5] it was 160 nM. For the same compound, in data set [4], the selectivity ratio stood at 12.
In [1], `FC(F)(F)C1(C#CC2CC2)NC(Nc2ccc(Cl)c(Cl)c2)=Nc2ccc(Cl)cc21` (stereo not given) registered a 50% cytotoxic concentration (CC50) at 120 h of 2100 nM. Also, the concentration giving a half-maximal response (EC50) was 170 nM in [2], above 2100 nM in data set [3] and 30 nM in [5]. Besides, the selectivity ratio in [4] was found to be 70. Also, in [6], the IC50 stood at 3.7 nM.
The compound `COc1cccc(NC2=Nc3ccc(Cl)cc3C(C#CC3CC3)(C(F)(F)F)N2)c1` (stereo not given) came in with a CC50 at 120 h in data set [1] of 2700 nM. Besides, the concentration giving a half-maximal response (EC50) in data set [2] is 290 nM; in data set [3] it was above 2600 nM; in data set [5] it was 63 nM. In addition, in data set [4], the selectivity ratio was determined as 44. Besides, the IC50 in data set [6] worked out at 1.1 nM.
In turn, `Fc1ccc(NC2=Nc3ccc(Cl)cc3C(C#CC3CC3)(C(F)(F)F)N2)cc1Cl` (stereo not given) showed a CC50 at 120 h in data set [1] of 1900 nM. Also, the values for the EC50 in [2], in data set [3] and in data set [5] were 460 nM, above 1800 nM and 190 nM, respectively. Moreover, the selectivity ratio in [4] came out at 10.
Consider `FC(F)(F)C1(C#CC2CC2)NC(Nc2ccc(Br)cc2)=Nc2ccc(Cl)cc21` (stereo not given), for which the cytotoxic concentration (CC50) at 120 h in data set [1] was above 3400 nM. Moreover, the EC50 in data set [2] is above 3400 nM; in [3] it was above 3400 nM; in data set [5], 450 nM. Further, in [4], the selectivity ratio was above 8.
Take `COc1ccccc1NC1=Nc2ccc(Cl)cc2C(C#CC2CC2)(C(F)(F)F)N1` (stereo not given): the CC50 at 120 h in data set [1] stood at 8600 nM. Besides, the figures for the EC50 in data set [2], in data set [3] and in data set [5] were 190 nM, above 8600 nM and 150 nM, respectively. The selectivity ratio in data set [4] amounted to 58.
On the same counts, the results for `NC(=O)c1ccc(NC2=Nc3ccc(Cl)cc3C(C#CC3CC3)(C(F)(F)F)N2)cc1` (stereo not given) are 12000 nM, 160 nM, above 2900 nM, 220 nM and 58.
Consider `FC(F)(F)c1cccc(NC2=Nc3ccc(Cl)cc3C(C#CC3CC3)(C(F)(F)F)N2)c1` (stereo not given), for which, in data set [1], half-maximal cytotoxicity (CC50 at 120 h) was put at 3300 nM. Besides, the results for the EC50 in data set [2], in data set [3] and in data set [5] were 350 nM, above 3200 nM and 51 nM, respectively. In addition, the selectivity ratio in data set [4] was determined as 64. Also, in data set [6], the IC50 was 4.5 nM.
With `FC(F)(F)C1(C#CC2CC2)NC(Nc2cccc(Br)c2)=Nc2ccc(Cl)cc21` (stereo not given), in data set [1], the 50% cytotoxic concentration (CC50) at 120 h came out at 2100 nM. Further, the concentration for a half-maximal effect (EC50) in data set [2] was 420 nM; in data set [3], above 2100 nM; in [5] it was 150 nM. Also, in data set [4], the selectivity ratio was 14.
On the same counts, the results for `Fc1ccc(NC2=Nc3ccc(Cl)cc3C(C#CC3CC3)(C(F)(F)F)N2)cc1` (stereo not given) are 2400 nM, 460 nM, above 2300 nM, 250 nM and 9.
`O=[N+]([O-])c1cccc(NC2=Nc3ccc(Cl)cc3C(C#CC3CC3)(C(F)(F)F)N2)c1` (stereo not given) registered a CC50 at 120 h in [1] of 1600 nM. In addition, the figures for the concentration for a half-maximal effect (EC50) in [2], in [3] and in data set [5] were 360 nM, above 1600 nM and 120 nM, respectively. For the same compound, the selectivity ratio in data set [4] stood at 14.
Regarding `O=C1Nc2ccc(Cl)cc2[C@@](C#CC2CC2)(C(F)(F)F)O1` [EFAVIRENZ], in data set [1], the half-maximal cytotoxic concentration (CC50) at 120 h was above 2000 nM. In addition, the EC50 in data set [2] was determined as 2 nM; in [3], 55 nM.
In the case of `Cc1cc(C#N)cc(C)c1Oc1nc(Nc2ccc(C#N)cc2)nc(N)c1Br` [ETRAVIRINE], the 50% cytotoxic concentration (CC50) at 120 h in data set [1] was above 2000 nM. The half-maximal effective concentration (EC50) in data set [2] was 6.3 nM; in data set [3], 15 nM. In [4], the selectivity ratio was above 923.

Broadly, the CC50 is the concentration at which the toxic effect on the cells reaches its halfway point. A low value points to greater toxicity to the cells. The term EC50 denotes the concentration that produces a half-maximal response. A low value points to higher potency in that assay. As a reminder, the IC50 is the concentration at which inhibition is half-maximal.
